Assay [1] has as its target T1, Retinoic acid receptor beta [200-419] (Homo sapiens, UniProt P10826).
T1 construct: 200-419
T1 sequence (P10826 whole entry): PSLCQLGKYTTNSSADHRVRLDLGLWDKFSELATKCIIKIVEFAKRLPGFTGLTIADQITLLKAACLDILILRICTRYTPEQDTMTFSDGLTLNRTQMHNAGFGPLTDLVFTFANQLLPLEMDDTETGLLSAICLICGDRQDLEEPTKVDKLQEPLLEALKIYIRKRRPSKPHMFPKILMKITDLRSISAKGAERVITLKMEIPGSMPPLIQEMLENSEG
As to the kind of experiment: Retinoid Competition Binding Assay. The following applies: pH 7.9; 4 °C.

The target of assay [2] is T2, Retinoic acid receptor alpha [200-419] (Homo sapiens, UniProt P10276).
T2 construct: 200-419
T2 sequence (P10276 whole entry): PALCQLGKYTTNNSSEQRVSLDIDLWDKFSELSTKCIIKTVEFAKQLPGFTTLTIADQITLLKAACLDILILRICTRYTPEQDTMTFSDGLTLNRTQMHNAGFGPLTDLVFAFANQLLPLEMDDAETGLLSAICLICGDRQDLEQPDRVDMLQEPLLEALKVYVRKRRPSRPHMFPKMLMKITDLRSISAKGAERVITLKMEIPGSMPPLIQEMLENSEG
As to the kind of experiment: Retinoid Competition Binding Assay. Conditions: pH 7.9; 4 °C.

As for `CC1(C)CCC(C)(C)c2cc(C(=O)/C=C/c3ccc(C(=O)O)cc3)ccc21` [Ch 80], the values for the Kd in assay [1] and in assay [2] were 3.5 nM and 0.4 nM, respectively.

Values taken from BindingDB's records for doi:10.1006/jmbi.2000.4032 (Cnrs, 2000).
